Read-outs that look alike come from different tables or passages of the source.
What was measured:
Format in all cases: cell-based
rNaV1.4 [1] = molecular target: T1, rNaV1.4 (Rattus norvegicus, UniProt P15390); test: automated patch clamp (IonFlux Mercury), […]
T1 construct: gene Scn4a; recombinant rNaV1.4 channel stably expressed in HEK 293 cells

rNaV1.4 [2] = molecular target: T1, rNaV1.4; test: automated patch clamp (IonFlux Mercury), […]; inhibition of pulse #[…] peak current at […]
rNaV1.4 [3] = molecular target: T1, rNaV1.4; test: automated patch clamp (IonFlux Mercury ensemble recording; Port-a-Patch single-cell validation), […]
rNaV1.4 [4] = molecular target: T1, rNaV1.4; test: as above; remark: listed apart in the source

T1 sequence (P15390 whole entry): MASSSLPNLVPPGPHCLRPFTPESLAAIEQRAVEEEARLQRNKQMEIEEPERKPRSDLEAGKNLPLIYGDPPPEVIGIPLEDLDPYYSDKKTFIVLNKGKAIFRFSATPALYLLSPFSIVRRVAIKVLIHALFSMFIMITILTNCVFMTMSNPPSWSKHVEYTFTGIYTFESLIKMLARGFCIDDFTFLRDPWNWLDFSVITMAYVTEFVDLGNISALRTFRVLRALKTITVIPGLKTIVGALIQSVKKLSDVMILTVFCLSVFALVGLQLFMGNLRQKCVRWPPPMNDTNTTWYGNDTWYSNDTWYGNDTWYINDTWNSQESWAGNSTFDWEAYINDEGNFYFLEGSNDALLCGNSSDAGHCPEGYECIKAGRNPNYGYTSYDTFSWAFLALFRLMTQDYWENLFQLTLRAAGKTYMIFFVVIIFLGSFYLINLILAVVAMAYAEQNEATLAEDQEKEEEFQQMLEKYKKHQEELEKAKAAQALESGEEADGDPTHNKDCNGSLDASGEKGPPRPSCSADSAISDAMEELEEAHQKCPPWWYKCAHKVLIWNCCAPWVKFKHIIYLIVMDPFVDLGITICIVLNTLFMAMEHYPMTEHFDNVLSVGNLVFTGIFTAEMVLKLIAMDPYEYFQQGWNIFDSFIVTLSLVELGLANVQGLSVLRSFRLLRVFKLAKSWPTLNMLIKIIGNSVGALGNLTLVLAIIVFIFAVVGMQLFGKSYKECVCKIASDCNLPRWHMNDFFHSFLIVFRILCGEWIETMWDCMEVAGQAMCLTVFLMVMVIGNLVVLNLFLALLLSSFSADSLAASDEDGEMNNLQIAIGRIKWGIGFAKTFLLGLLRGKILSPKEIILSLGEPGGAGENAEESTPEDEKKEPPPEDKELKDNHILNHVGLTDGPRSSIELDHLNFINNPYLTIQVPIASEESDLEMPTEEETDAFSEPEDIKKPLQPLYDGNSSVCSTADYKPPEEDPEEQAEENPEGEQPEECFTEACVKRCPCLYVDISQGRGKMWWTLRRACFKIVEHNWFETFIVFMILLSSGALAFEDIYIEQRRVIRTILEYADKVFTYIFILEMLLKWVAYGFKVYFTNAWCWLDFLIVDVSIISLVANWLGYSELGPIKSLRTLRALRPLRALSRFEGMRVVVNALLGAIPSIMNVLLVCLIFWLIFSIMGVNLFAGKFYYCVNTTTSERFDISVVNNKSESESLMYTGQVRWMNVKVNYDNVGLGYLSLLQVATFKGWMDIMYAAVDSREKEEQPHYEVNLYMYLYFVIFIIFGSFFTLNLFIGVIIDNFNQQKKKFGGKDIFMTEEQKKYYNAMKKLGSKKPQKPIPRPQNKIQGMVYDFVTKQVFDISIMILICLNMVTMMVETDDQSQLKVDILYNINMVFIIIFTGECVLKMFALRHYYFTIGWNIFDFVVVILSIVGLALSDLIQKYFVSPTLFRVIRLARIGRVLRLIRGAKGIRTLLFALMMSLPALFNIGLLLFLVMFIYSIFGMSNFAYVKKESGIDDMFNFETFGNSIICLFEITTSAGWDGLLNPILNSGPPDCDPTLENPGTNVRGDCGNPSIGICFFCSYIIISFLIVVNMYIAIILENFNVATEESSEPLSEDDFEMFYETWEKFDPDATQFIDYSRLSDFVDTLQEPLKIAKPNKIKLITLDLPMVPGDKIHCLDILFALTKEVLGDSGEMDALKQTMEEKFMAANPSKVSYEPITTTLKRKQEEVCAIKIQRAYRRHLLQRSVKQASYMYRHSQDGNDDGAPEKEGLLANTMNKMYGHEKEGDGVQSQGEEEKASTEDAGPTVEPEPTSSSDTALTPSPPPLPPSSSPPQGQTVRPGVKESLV

SMILES: CN(C)CCCN1c2ccccc2Sc2ccc(Cl)cc21 [chlorpromazine]
- automated patch clamp (IonFlux Mercury), 10 and 30 μM (rNaV1.4 [1]): inhibition by chlorpromazine was not much relieved throughout the whole 17-pulse sweep

SMILES: CN(C)CCCN1c2ccccc2CCc2ccccc21 [imipramine]
- inhibition at 30 µM (rNaV1.4 [2]): 50 to 55%

SMILES: CCN(CC)CC(=O)Nc1c(C)cccc1C [lidocaine]
- automated patch clamp (IonFlux Mercury ensemble recording); Port-a-Patch single-c (rNaV1.4 [3]): lidocaine caused a slowing of the fast time constant of recovery, which was moderate at lower concentrations

SMILES: Nc1nc2ccc(OC(F)(F)F)cc2s1 [riluzole]
- automated patch clamp (IonFlux Mercury ensemble recording); Port-a-Patch single-c (rNaV1.4 [4]): riluzole caused no change in either the contribution or the value of the slow time constant but caused a radical
